Measured values as given in patent US20240216344A1, “THIAZOLIDINEDIONE ANALOGS FOR THE TREATMENT OF NAFLD AND METABOLIC DISEASES” (Cirius Therapeutics, Inc., priority 2019, published 2024).

System: patients with biopsy-proven NASH with fibrosis and no cirrhosis
Test: EMMINENCE Phase 2b trial, markers of glucose metabolism, liver enzymes, fibrosis and apoptosis biomarkers
Type: in vivo, human
Settings: for Glucose, LS mean change from baseline to 6 months / Glucose, LS mean difference vs placebo at 6 months / HOMA IR, LS mean change from baseline to 6 months / HOMA IR, LS mean difference vs placebo at 6 months / HgBA1C, LS mean change from baseline to 6 months / HgBA1C, LS mean difference vs placebo at 6 months / Insulin, LS mean change from baseline to 6 months / Insulin, LS mean difference vs placebo at 6 months: patients with HbA1C >7%
Protocol: Study Design: EMMINENCE was a randomized, double-blind evaluation of three oral daily doses of MSDC-0602K (62.5 mg, 125 mg and 250 mg) or placebo given for 12 months to adult patients with biopsy-proven NASH with fibrosis and no cirrhosis. The primary efficacy endpoint was assessed at 12 months. Clinic visits were conducted at baseline, 1, 2, 3, 6, 9, and 12 months, followed 2 weeks later by a safety visit. An interim analysis of safety and efficacy not related to the primary and secondary endpoints was conducted when 6 month data were available for 328 patients (see Example 5, above.) Interim results were provided only as summary statistics to avoid any unmasking of the study team or sponsor.
If no usable liver biopsy was available within 9 months prior to screening, a percutaneous liver biopsy was performed in patients with AST≥20 U/L and FibroScan CAP score ≥270 db/m and kPa≥8.5. Digitized slides were read by a single expert histopathologist according to NASH Clinical Research Network criteria. Baseline biopsies were read first for study qualification and a second time mixed randomly among 12-month biopsies. Fasting blood samples for routine central laboratory analyses were collected at each visit, and frozen samples collected at selected visits for biomarker assays.
Efficacy endpoints: The primary efficacy endpoint was hepatic histological improvement in NAS defined as ≥2-point NAS decrease with a ≥1-point reduction in either ballooning or lobular inflammation and no increase in fibrosis stage at 12 months. Secondary efficacy endpoints included (1) NASH resolution defined as hepatocellular ballooning score of 0 and lobular inflammation score of 0-1 with no increase in fibrosis stage at 12 months, (2) fibrosis improvement defined as ≥1-stage decrease in fibrosis with no worsening of lobular inflammation or hepatocellular ballooning, (3) change from baseline in NAFLD activity score (NAS) and each one of its components (steatosis, lobular inflammation and ballooning) at 12 months, and (4) change from baseline in fibrosis score at 12 months. Exploratory efficacy endpoints included shifts in the central histopathologist's NASH diagnosis confirmation, and changes from baseline to 12 months in markers of glycemic control and insulin sensitivity, liver function/injury, and apoptosis and liver fibrosis.
Using a modified intent-to-treat approach, treated patients were included for analysis in their randomly-assigned treatment groups. Participation of sites with serious GCP or quality concerns were terminated and their data excluded from the analyses. Post-baseline measures through 14 days after the last study drug dose were included. No errors in treatment assignment occurred. The central histopathologist's re-read of baseline biopsies was used as baseline. Patients who no longer qualified on re-read were included in the analyses. Each active treatment group was compared to placebo with respect to the primary and secondary histopathologic endpoints using logistic regression including adjustment for randomization strata (diabetes mellitus, baseline fibrosis F1 versus F2/F3), and ordinal baseline NAS. Stratification-adjusted risk differences adjusted similarly are provided. The primary analyses included only observed data; sensitivity analyses included multiply-imputing missing follow-up and considering missing follow-up as a non-responder. Each active dose was compared to placebo regarding changes in NASH CRN scores using analysis of covariance with adjustment for age, sex, diabetes mellitus, Vitamin E≥400 IU, baseline fibrosis F1 versus F2/F3, and the baseline value. Changes in laboratory markers from baseline to 6 months and to 12 months were analyzed similarly.
Post-hoc analyses: Each active dose was compared to placebo regarding the proportion where the pathologist's NASH diagnosis shifted from confirmed at baseline (re-read) to not confirmed at month 12 using logistic regression. […]

## COc1cccc(C(=O)COc2ccc(CC3SC(=O)NC3=O)cc2)c1 (stereo not shown) [MSDC-0602K]
62.5 mg
  proportion of patients with baseline ALT above 19 (women) and 30 (men) U/L whose levels were normal at 12 months: 10.6%
  Glucose, LS mean change from baseline to 6 months: -2.42 mmol/L
  Glucose, LS mean difference vs placebo at 6 months: -1.18 mmol/L
  HOMA IR, LS mean change from baseline to 6 months: −6.472
  HOMA IR, LS mean difference vs placebo at 6 months: −1.964
  HgBA1C, LS mean change from baseline to 6 months: −0.61%
  HgBA1C, LS mean difference vs placebo at 6 months: −0.18 %
  Insulin, LS mean change from baseline to 6 months: −7.724 uIU/mL
  Insulin, LS mean difference vs placebo at 6 months: −2.242 uIU/mL
125 mg
  proportion of patients with baseline ALT above 19 (women) and 30 (men) U/L whose levels were normal at 12 months: 20.8%
  Glucose, LS mean change from baseline to 6 months: -3.48 mmol/L
  Glucose, LS mean difference vs placebo at 6 months: -2.23 mmol/L
  HOMA IR, LS mean change from baseline to 6 months: −8.178
  HOMA IR, LS mean difference vs placebo at 6 months: −3.669
  HgBA1C, LS mean change from baseline to 6 months: −1.43%
  HgBA1C, LS mean difference vs placebo at 6 months: −1.01%
  Insulin, LS mean change from baseline to 6 months: −8.208 uIU/mL
  Insulin, LS mean difference vs placebo at 6 months: −2.726 uIU/mL
250 mg
  proportion of patients with baseline ALT above 19 (women) and 30 (men) U/L whose levels were normal at 12 months: 33.3%
  Glucose, LS mean change from baseline to 6 months: -3.24 mmol/L
  Glucose, LS mean difference vs placebo at 6 months: -1.99 mmol/L
  HOMA IR, LS mean change from baseline to 6 months: −8.197
  HOMA IR, LS mean difference vs placebo at 6 months: −3.689
  HgBA1C, LS mean change from baseline to 6 months: −1.00%
  HgBA1C, LS mean difference vs placebo at 6 months: −0.58%
  Insulin, LS mean change from baseline to 6 months: −10.066 uIU/mL
  Insulin, LS mean difference vs placebo at 6 months: −4.584 uIU/mL
Combined 125 and 250 mg dose groups
  proportion of patients with baseline ALT above 19 (women) and 30 (men) U/L whose levels were normal at 12 months: 27.2%
